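Tested at 5 concentrations; 48 h exposure; 96-well plates; endpoints linearly interpolated, else capped at highest concentration. TGI is the concentration that stops growth completely.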

The results in this text go back to PubChem BioAssay (NCI).

Test systems include OVCAR-8 ovarian; MDA-MB-231 breast; IGROV1 ovarian; MDA-MB-435; U251 CNS; SK-MEL-5 melanoma; CCRF-CEM leukemia; A549 NSCLC; COLO 205 colon; SF-295 CNS; OVCAR-4 ovarian; MCF7 breast.
Assay in all cases: NCI anticancer screen, dose series, 48 h

Turning to `CC1=NNC(=O)C1C1C=C(c2c[nH]c3ccccc23)OC1=O` (stereo not given), the TGI with OVCAR-8 ovarian, with MDA-MB-231 breast, in the assay with IGROV1 ovarian, with MDA-MB-435, with U251 CNS and in the assay on SK-MEL-5 melanoma was greater than 100 µM throughout. The TGI with CCRF-CEM leukemia, with A549 NSCLC, with COLO 205 colon and in the assay on SF-295 CNS was greater than 100 µM in each case.
For the molecule `CC1(C)CCC[C@@]2(C)C1CC[C@@]1(CO1)[C@@H]2/C=C\C(C=O)CC=O` (stereo not given in full), the TGI in the assay with OVCAR-8 ovarian, in the assay on MDA-MB-231 breast, in the assay with IGROV1 ovarian, in the assay on MDA-MB-435, in the assay on U251 CNS and in the assay on SK-MEL-5 melanoma was greater than 100 µM in each case. Besides, the TGI with CCRF-CEM leukemia is greater than 68.7 µM; in the assay with A549 NSCLC, greater than 100 µM; in the assay on OVCAR-4 ovarian it was greater than 100 µM; in the assay with COLO 205 colon it was greater than 100 µM; in the assay on MCF7 breast it was greater than 100 µM; in the assay on SF-295 CNS it was greater than 100 µM.
As for `COC(=O)C1=COC2OC3CC1C2C(C)O3` (stereo not given), the TGI with OVCAR-8 ovarian, in the assay on MDA-MB-231 breast, with IGROV1 ovarian, in the assay on MDA-MB-435, in the assay with U251 CNS and in the assay on SK-MEL-5 melanoma was greater than 100 µM each time. For the same molecule, the TGI in the assay with CCRF-CEM leukemia, in the assay with A549 NSCLC, in the assay with OVCAR-4 ovarian, with COLO 205 colon, in the assay with MCF7 breast and in the assay with SF-295 CNS was greater than 100 µM each time.
Regarding `COc1ccc(C2=NN(C(=O)c3ccc(Cl)cc3)C(O)(c3cc(F)c(Cl)cc3Cl)C2)cc1` (stereo not given), the TGI in the assay with OVCAR-8 ovarian, with MDA-MB-231 breast, in the assay with IGROV1 ovarian, with MDA-MB-435, in the assay on U251 CNS and with SK-MEL-5 melanoma was greater than 100 µM in each case. Moreover, the TGI in the assay with CCRF-CEM leukemia, in the assay on A549 NSCLC, in the assay on OVCAR-4 ovarian, with COLO 205 colon, in the assay on MCF7 breast and in the assay with SF-295 CNS was greater than 100 µM each time.
`N#CC(C#N)=Cn1c(=S)[nH]c2ccc([N+](=O)[O-])cc21`: the TGI in the assay on OVCAR-8 ovarian, in the assay on MDA-MB-231 breast, in the assay on IGROV1 ovarian, in the assay with MDA-MB-435, in the assay with U251 CNS and with SK-MEL-5 melanoma was greater than 100 µM each time. In addition, the TGI with CCRF-CEM leukemia, in the assay with A549 NSCLC, with OVCAR-4 ovarian, with COLO 205 colon, in the assay on MCF7 breast and in the assay with SF-295 CNS was greater than 100 µM throughout.
Consider `O=Cc1ccc(-c2ccc(S(=O)(=O)O)cc2)o1`, for which the TGI in the assay on OVCAR-8 ovarian, in the assay with MDA-MB-231 breast, in the assay on IGROV1 ovarian, in the assay with MDA-MB-435, with U251 CNS and with SK-MEL-5 melanoma was greater than 100 µM each time. Further, the TGI in the assay on A549 NSCLC, in the assay with COLO 205 colon, in the assay with MCF7 breast and with SF-295 CNS was greater than 100 µM throughout.
In the case of `CCOC(=O)CCc1ccc(NC(=O)/C=C/c2ccc([N+](=O)[O-])o2)cc1`, the TGI in the assay with OVCAR-8 ovarian is 2.28 µM; in the assay with MDA-MB-231 breast, 3.94 µM; in the assay with IGROV1 ovarian it was greater than 31.1 µM; in the assay on MDA-MB-435, 0.845 µM; with U251 CNS, 6.42 µM; with SK-MEL-5 melanoma it was 3.49 µM. In addition, the TGI in the assay with CCRF-CEM leukemia was 0.957 µM; in the assay on A549 NSCLC, 15.1 µM; with OVCAR-4 ovarian, greater than 100 µM; in the assay on COLO 205 colon, 5.29 µM; with MCF7 breast it was 32.4 µM; in the assay with SF-295 CNS, 28.7 µM.
As for `CC(=O)N1N=C(c2ccc3ccccc3c2O)CC1c1ccc(N(C)C)cc1` (stereo not given), the TGI in the assay with OVCAR-8 ovarian, in the assay on MDA-MB-231 breast, in the assay on IGROV1 ovarian, with MDA-MB-435, with U251 CNS and in the assay on SK-MEL-5 melanoma was greater than 100 µM each time. Also, the TGI with CCRF-CEM leukemia, with A549 NSCLC, in the assay on OVCAR-4 ovarian, in the assay on COLO 205 colon, in the assay on MCF7 breast and with SF-295 CNS was greater than 100 µM throughout.
For the molecule `Cc1ccc2c(c1)CC1(C2)Cc2ccc(C)cc2C1=O` (stereo not given), the TGI was greater than 100 µM in the assay on OVCAR-8 ovarian; 62.5 µM with MDA-MB-231 breast; greater than 100 µM with IGROV1 ovarian; greater than 100 µM in the assay with MDA-MB-435; greater than 100 µM in the assay with U251 CNS; 26 µM in the assay with SK-MEL-5 melanoma. In addition, the TGI with CCRF-CEM leukemia was 62.3 µM; with A549 NSCLC, greater than 100 µM; in the assay with OVCAR-4 ovarian, greater than 100 µM; in the assay with COLO 205 colon it was 44.3 µM; in the assay on MCF7 breast, 89 µM; in the assay with SF-295 CNS it was greater than 100 µM.
Regarding `Cc1ccc(CN2CCN(Cc3ccc(C)o3)C(C)C2)o1` (stereo not given), the TGI with OVCAR-8 ovarian, in the assay on MDA-MB-231 breast, with IGROV1 ovarian, in the assay with MDA-MB-435, in the assay with U251 CNS and with SK-MEL-5 melanoma was greater than 100 µM each time. In addition, the TGI with CCRF-CEM leukemia, in the assay on A549 NSCLC, in the assay with OVCAR-4 ovarian, in the assay with COLO 205 colon, in the assay with MCF7 breast and with SF-295 CNS was greater than 100 µM each time.
Take `Cc1ccc(S(=O)(=O)NNC(=O)Nc2ccc([N+](=O)[O-])cc2)cc1`: the TGI in the assay on OVCAR-8 ovarian is 42.3 µM; in the assay on MDA-MB-231 breast it was greater than 100 µM; in the assay with IGROV1 ovarian, greater than 100 µM; with MDA-MB-435, greater than 100 µM; with U251 CNS it was greater than 100 µM; in the assay on SK-MEL-5 melanoma, greater than 100 µM. Further, the TGI was greater than 100 µM in the assay on CCRF-CEM leukemia; greater than 100 µM in the assay on A549 NSCLC; 89.4 µM with OVCAR-4 ovarian; greater than 100 µM in the assay with COLO 205 colon; greater than 100 µM with MCF7 breast; greater than 100 µM in the assay with SF-295 CNS.
In the case of `C[C@H]1S[C@H](c2c(F)cccc2F)n2c1nc1ccccc12`, the TGI is greater than 100 µM in the assay with OVCAR-8 ovarian; greater than 100 µM with MDA-MB-231 breast; greater than 100 µM in the assay on IGROV1 ovarian; greater than 100 µM with MDA-MB-435; greater than 100 µM in the assay with U251 CNS; 45.3 µM in the assay with SK-MEL-5 melanoma. In addition, the TGI in the assay with CCRF-CEM leukemia, in the assay on A549 NSCLC, with OVCAR-4 ovarian, in the assay on COLO 205 colon, with MCF7 breast and in the assay with SF-295 CNS was greater than 100 µM in each case.
